Data: patent US8273787B2, “Activated cytotoxic compounds for attachment to targeting molecules for the treatment of mammalian disease conditions” (Onconova Therapeutics, Inc, priority 2006, dated 2012)

Tests used:
CEM = assay: 96 hour growth inhibition, CEM; assay type: cell-based; settings: Homo sapiens, CCRF-CEM; CEM (PARENTAL)
Protocol: (§1) Two compounds were selected from our library of cytotoxic molecules for immunoconjugation since they both have IC50 values in the low nanomolar range. Various tumor cell lines (ATCC) were treated for 96 hours in the presence of increasing concentrations of each compound and the total number of viable cells remaining was determined after 96 hours of exposure. The IC50 value was determined to be the amount of drug required to inhibit the growth of each cell line 50% as compared to vehicle treated cells.
(§2) Another extremely important predictive factor is the ability of these compounds to kill cell lines overexpressing multiple drug resistance (MDR) genes. A very high percentage of cancer patient relapses are due to some form of resistance to traditional chemotherapy. Of these patients, the vast majority express one or more of the MDR genes within the ABC transport gene family. Overexpression of these genes increases the efflux of compounds that are recognized by these pumping systems. […] Onconova's benzyl styryl sulfone compounds are not recognized by the MDR-1 gene and therefore provide an advantage over other highly toxic drugs including but not limited to the taxanes, doxorubicin, etoposide, and vinca-alkaloids. […] MES-SA/Dx5, uterine sarcoma, and […], ovarian, are both classical multidrug resistant cell lines that are cross resistant to the taxanes and anthracyclins. Harker, W G, and Sikic, B. I., Multidrug (Pleiotropic) Resistance In Doxorubicin-Selected Variants Of The Human Sarcoma Cell Line MES-SA, Cancer Res. 45(9):4091-6 (1985). MES-SA/Dx5 and Apr. […] Fujimori, A., et al., Mutation At The Catalytic Site Of Topoisomerase I In CEM/C2, A Human Leukemia Cell Line Resistant To Camptothecin, Cancer Res. 55(6): 1339-46 (1995). ON 01500 and ON 013100, for example, are both extremely active against these resistant cell lines.

CEM/C2 (RESISTANT) = assay: growth inhibition, CEM/C2 (resistant); assay type: cell-based, Human
Protocol: as §1, §2

MES-SA/Dx5 (RESISTANT) = assay: growth inhibition, MES-SA/Dx5 (resistant); assay type: cell-based, Human
Protocol: as §1, §2

2008/17/4 (RESISTANT) = assay: growth inhibition, 2008/17/4 (resistant); assay type: cell-based
Protocol: as §1, §2

MES-SA (PARENTAL) = assay: growth inhibition, MES-SA (parental); assay type: cell-based; settings: Homo sapiens, uterine sarcoma
Protocol: as §1, §2

2008 (PARENTAL) = assay: growth inhibition, 2008 (parental); assay type: cell-based; settings: ovarian
Protocol: as §1, §2

SMILES	IC50 (CEM) [nM]	RSIST-ANCE (CEM/C2 (RESISTANT); CEM/C2 (RESISTANT) versus CEM (PARENTAL))	IC50 (CEM/C2 (RESISTANT); Homo sapiens, CEM/C2 (RESISTANT), non classical multiple drug resistant) [nM]	IC50 (MES-SA/Dx5 (RESISTANT); Homo sapiens, MES-SA/Dx5 (RESISTANT), uterine sarcoma, multidrug resistant) [nM]	RSIST-ANCE (MES-SA/Dx5 (RESISTANT); MES-SA/Dx5 (RESISTANT) versus MES-SA (PARENTAL))	fold resistant (MES-SA/Dx5 (RESISTANT); MES-SA/Dx5 versus parental) [fold]	RSIST-ANCE (2008/17/4 (RESISTANT); 2008/17/4 (RESISTANT) versus 2008 (PARENTAL))	IC50 (2008/17/4 (RESISTANT); 2008/17/4 (RESISTANT), ovarian, multidrug resistant) [nM]	fold resistant (2008/17/4 (RESISTANT); 2008/17/4 (printed Apr. 17, 2008) versus parental) [fold]	IC50 (MES-SA (PARENTAL)) [nM]	IC50 (2008 (PARENTAL)) [nM]
CC[C@@]1(O)C(=O)OCc2c1cc1n(c2=O)Cc2cc3ccccc3nc2-1 [CAMPTOTHECIN, reference compound]	2	500	1000	–	–	–	–	–	–	–	–
CC(=O)O[C@H]1C(=O)[C@@]2(C)[C@H]([C@H](OC(=O)c3ccccc3)[C@]3(O)C[C@H](OC(=O)[C@H](O)[C@@H](NC(=O)c4ccccc4)c4ccccc4)C(C)=C1C3(C)C)[C@]1(OC(C)=O)CO[C@@H]1C[C@@H]2O [PACLITAXEL, reference compound]	–	–	–	750	188	188	667	2000	667	4	3
